One experiment has as its target hCA I (Homo sapiens, UniProt P00915). Nature of the experiment: biochemical.
The target of another experiment is hCA II (Homo sapiens, UniProt P00918). Nature of the experiment: biochemical.

The source of these data is publication PMC6010057, “Synthesis, carbonic anhydrase I and II inhibition studies of the 1,3,5-trisubstituted-pyrazolines” (Journal of Enzyme Inhibition and Medicinal Chemistry, 2016).

hCA I, sequence (P00915 whole entry): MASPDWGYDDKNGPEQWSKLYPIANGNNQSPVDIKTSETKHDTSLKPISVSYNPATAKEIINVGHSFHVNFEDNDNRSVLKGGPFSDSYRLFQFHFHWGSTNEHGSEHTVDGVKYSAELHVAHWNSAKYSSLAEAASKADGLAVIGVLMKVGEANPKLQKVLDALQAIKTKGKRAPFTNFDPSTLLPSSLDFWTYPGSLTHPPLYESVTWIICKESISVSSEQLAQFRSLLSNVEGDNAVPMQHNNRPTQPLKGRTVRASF

At hCA I, `NS(=O)(=O)c1ccc(N2N=C(c3ccccc3)CC2c2ccccc2)cc1` (stereo not shown) [Compound 9, 4-(3,5-Diphenyl-4,5-dihydro-1H-pyrazol-1-yl)benzenesulfonamide] registered an IC50 of 555 nM and an inhibition constant Ki of 506 ± 133 nM. For the same compound, at hCA II, the IC50 was determined as 586 nM and the affinity, expressed as Ki, was 625 ± 168 nM.

Consider `COc1ccc(C2=NN(c3ccc(S(N)(=O)=O)cc3)C(c3ccccc3)C2)cc1` (stereo not shown) [Compound 11, 4-(3-(4-Methoxyphenyl)-5-phenyl-4,5-dihydro-1H-pyrazol-1-yl)benzenesulfonamide], for which, at hCA I, the midpoint of inhibition, the IC50, lay at 484 nM and the affinity corresponds to a Ki of 533 ± 188 nM. On hCA II, this compound gave an IC50 of 486 nM and an inhibition constant (Ki) of 469 ± 63 nM.

`NS(=O)(=O)c1ccc(N2N=C(c3ccc(Cl)cc3)CC2c2ccccc2)cc1` (stereo not shown) [Compound 12, 4-(3-(4-Chlorophenyl)-5-phenyl-4,5-dihydro-1H-pyrazol-1-yl)benzenesulfonamide]: on hCA I, half-maximal inhibition (IC50) was put at 403 nM and the Ki is 378 ± 114 nM. Moreover, on hCA II, the IC50 stood at 559 nM and affinity was put at a Ki of 521 ± 132 nM.

Consider `NS(=O)(=O)c1ccc(N2N=C(c3ccc(F)cc3)CC2c2ccccc2)cc1` (stereo not shown) [Compound 13, 4-(3-(4-Fluorophenyl)-5-phenyl-4,5-dihydro-1H-pyrazol-1-yl)benzenesulfonamide], for which, at hCA I, the 50% inhibitory concentration (IC50) was determined as 493 nM and affinity was put at a Ki of 462 ± 134 nM. At hCA II, this compound gave a 50% inhibitory concentration (IC50) of 536 nM and an inhibition constant (Ki) of 587 ± 188 nM.

In the case of `NS(=O)(=O)c1ccc(N2N=C(c3ccc(Br)cc3)CC2c2ccccc2)cc1` (stereo not shown) [Compound 14, 4-(3-(4-Bromophenyl)-5-phenyl-4,5-dihydro-1H-pyrazol-1-yl)benzenesulfonamide], the IC50 on hCA I is 405 nM; on hCA II, 470 nM. Moreover, the figures for the inhibition constant (Ki) on hCA I and on hCA II were 317 ± 9.6 nM and 412 ± 115 nM, respectively.

Turning to `NS(=O)(=O)c1ccc(N2N=C(c3ccc([N+](=O)[O-])cc3)CC2c2ccccc2)cc1` (stereo not shown) [Compound 15, 4-(3-(4-Nitrophenyl)-5-phenyl-4,5-dihydro-1H-pyrazol-1-yl)benzenesulfonamide], the values for the IC50 against hCA I and against hCA II were 416 nM and 534 nM, respectively. Moreover, the figures for the inhibition constant (Ki) at hCA I and on hCA II were 326 ± 29.4 nM and 430 ± 87.3 nM, respectively.

Turning to `NS(=O)(=O)c1ccc(N2N=C(c3ccc(O)cc3)CC2c2ccccc2)cc1` (stereo not shown) [Compound 16, 4-(3-(4-Hydroxyphenyl)-5-phenyl-4,5-dihydro-1H-pyrazol-1-yl)benzenesulfonamide], at hCA I, the midpoint of inhibition, the IC50, lay at 528 nM and the affinity corresponds to a Ki of 472 ± 57.5 nM. Besides, on hCA II, the IC50 was found to be 459 nM and the inhibition constant (Ki) was determined as 592 ± 134 nM.

As usually defined, the IC50 is the concentration that gives 50% inhibition. A lower IC50 goes with greater potency. What is called Ki is the equilibrium dissociation constant of an inhibitor or competing ligand from its target. Low readings indicate tighter binding, high ones weaker binding.
